How the values were obtained:
[1] = 101.32 kPa, Liquid; for speed of sound: Frequency=3 MHz, Linear variable-path acoustic interferometer
[2] = refractive index (Na D-line) (dimensionless); conditions: 101.32 kPa, Liquid, Standard Abbe refractometry
[3] = xn = mol fraction of the nth substance listed; conditions: 101.32 kPa, Liquid, x1 = 1; for speed of sound: Frequency=3 MHz, Linear variable-path acoustic interferometer
[4] = refractive index (Na D-line) (dimensionless); xn = mol fraction of the nth substance listed; conditions: 101.32 kPa, Liquid, Standard Abbe refractometry, x1 = 1

C1COCCO1 [1,4-dioxane]
Conditions	mass density, [1] [kg/m3]	refractive index, [2]	speed of sound, [1] [m/s]
295.15 K	1030.86	1.4211	1357.7
298.15 K	1027.59	1.4197	1344.8
301.15 K	1024.32	1.4183	1331.9
304.15 K	1021.05	1.4168	1319
307.15 K	1017.78	1.4154	1306.2
310.15 K	1014.51	1.4138	1293.3
313.15 K	1011.24	1.4124	1280.4

C1COCCO1 [1,4-dioxane] + CC(C)C(=O)O
Conditions	mass density, [3] [kg/m3]	refractive index, [4]	speed of sound, [3] [m/s]
295.15 K	1030.86	1.4211	1357.7
298.15 K	1027.59	1.4197	1344.8
301.15 K	1024.32	1.4183	1331.9
304.15 K	1021.05	1.4168	1319
307.15 K	1017.78	1.4154	1306.2
310.15 K	1014.51	1.4138	1293.3
313.15 K	1011.24	1.4124	1280.4

CC(C)C(=O)O [2-methylpropanoic acid]
Conditions	mass density, [1] [kg/m3]	refractive index, [2]	speed of sound, [1] [m/s]
295.15 K	945.28	1.3919	1100.2
298.15 K	942.22	1.3907	1086
301.15 K	939.16	1.3895	1072.1
304.15 K	936.1	1.3883	1058.2
307.15 K	933.04	1.3872	1043.4
310.15 K	929.98	1.386	1030.8
313.15 K	926.92	1.3849	1015.2

Reference: the NIST ThermoML archive (doi:10.1021/je5010643)
